Measured values taken from patent publication US8471005B2 (Cephalon, Inc., priority 2008, dated 2013).
Like-named read-outs stand apart in the source and are kept apart here.

What was measured:
[1] = biological target: T1, JAK2 (Homo sapiens, UniProt O60674); experiment: Recombinant Human JAK2 Kinase Assay (TRF); type: biochemical; settings: read-out: JAK2 Potency
T1 construct: host or cells: baculovirus expression system
Method in brief: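 Baculovirus-expressed JAK2 (15 ng/ml) phosphorylated a biotinylated 15-mer peptide captured on Neutravidin, in 20 mM HEPES pH 7.2, 0.2 μM ATP, 1 mM MnCl2, 0.1% BSA, 2.5% DMSO final, 20 min at room temperature. Phosphoproduct detected by time-resolved fluorescence with Eu-N1-labelled PY100 antibody.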

[2] = biological target: T2, ALK (Homo sapiens, UniProt Q9UM73); experiment: ALK Kinase Assay (ELISA/TRF, PLC-γ substrate); type: biochemical; settings: read-out: ALK Potency
T2 construct: host or cells: baculovirus expression system
T2 sequence (Q9UM73 19-1620): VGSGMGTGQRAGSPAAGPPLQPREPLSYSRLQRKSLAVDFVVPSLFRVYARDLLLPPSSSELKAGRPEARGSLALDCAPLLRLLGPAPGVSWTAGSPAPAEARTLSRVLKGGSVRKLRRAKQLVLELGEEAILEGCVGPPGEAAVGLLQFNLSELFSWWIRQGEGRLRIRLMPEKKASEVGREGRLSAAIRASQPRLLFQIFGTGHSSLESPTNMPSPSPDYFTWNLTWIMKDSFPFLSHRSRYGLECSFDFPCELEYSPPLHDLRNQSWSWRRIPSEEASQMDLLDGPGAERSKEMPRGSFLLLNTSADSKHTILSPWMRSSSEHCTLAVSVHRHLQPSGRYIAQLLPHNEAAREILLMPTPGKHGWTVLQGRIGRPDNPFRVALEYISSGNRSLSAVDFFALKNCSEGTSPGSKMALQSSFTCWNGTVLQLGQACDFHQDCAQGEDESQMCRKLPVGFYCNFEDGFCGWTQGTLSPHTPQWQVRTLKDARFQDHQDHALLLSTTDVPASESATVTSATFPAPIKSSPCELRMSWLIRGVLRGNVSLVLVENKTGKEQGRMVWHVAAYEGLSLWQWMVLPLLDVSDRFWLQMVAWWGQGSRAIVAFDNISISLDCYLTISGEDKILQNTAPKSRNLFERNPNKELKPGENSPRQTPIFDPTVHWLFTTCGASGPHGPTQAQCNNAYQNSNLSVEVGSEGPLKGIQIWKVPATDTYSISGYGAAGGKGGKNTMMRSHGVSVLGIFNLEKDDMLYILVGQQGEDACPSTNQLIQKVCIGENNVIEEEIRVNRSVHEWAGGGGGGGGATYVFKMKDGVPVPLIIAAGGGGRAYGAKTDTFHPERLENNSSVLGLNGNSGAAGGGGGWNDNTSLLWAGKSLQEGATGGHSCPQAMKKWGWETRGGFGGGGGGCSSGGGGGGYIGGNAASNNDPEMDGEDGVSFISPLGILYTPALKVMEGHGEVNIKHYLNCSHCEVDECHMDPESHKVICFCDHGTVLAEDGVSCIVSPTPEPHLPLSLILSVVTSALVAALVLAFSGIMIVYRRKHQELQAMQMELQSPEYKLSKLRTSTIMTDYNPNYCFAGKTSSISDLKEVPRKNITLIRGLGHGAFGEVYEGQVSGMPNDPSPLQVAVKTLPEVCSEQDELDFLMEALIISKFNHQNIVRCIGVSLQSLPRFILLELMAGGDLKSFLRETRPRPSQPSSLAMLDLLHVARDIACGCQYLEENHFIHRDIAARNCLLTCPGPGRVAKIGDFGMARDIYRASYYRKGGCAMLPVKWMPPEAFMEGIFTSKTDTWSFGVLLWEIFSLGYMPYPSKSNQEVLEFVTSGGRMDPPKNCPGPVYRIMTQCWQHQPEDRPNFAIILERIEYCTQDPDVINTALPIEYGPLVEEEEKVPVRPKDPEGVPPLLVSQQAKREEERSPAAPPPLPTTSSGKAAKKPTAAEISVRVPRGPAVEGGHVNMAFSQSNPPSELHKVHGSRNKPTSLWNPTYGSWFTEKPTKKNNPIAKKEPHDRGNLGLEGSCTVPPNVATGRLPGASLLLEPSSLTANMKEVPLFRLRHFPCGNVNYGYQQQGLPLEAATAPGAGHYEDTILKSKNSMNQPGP
Method in brief: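 IC50 values derive from percent inhibition plotted against log10 compound concentration and fitted to a variable-slope sigmoidal equation. The underlying reaction used 30 ng/ml ALK acting on immobilized PLC-γ (10 μg/mL in TBS) at 37° C for 15 minutes, read with Eu-N1 PT66 antibody.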

[3] = JAK2 kinase inhibition, 0.2 μM ATP
[4] = ALK kinase inhibition, 1 μM ATP

T1 sequence (O60674 whole entry): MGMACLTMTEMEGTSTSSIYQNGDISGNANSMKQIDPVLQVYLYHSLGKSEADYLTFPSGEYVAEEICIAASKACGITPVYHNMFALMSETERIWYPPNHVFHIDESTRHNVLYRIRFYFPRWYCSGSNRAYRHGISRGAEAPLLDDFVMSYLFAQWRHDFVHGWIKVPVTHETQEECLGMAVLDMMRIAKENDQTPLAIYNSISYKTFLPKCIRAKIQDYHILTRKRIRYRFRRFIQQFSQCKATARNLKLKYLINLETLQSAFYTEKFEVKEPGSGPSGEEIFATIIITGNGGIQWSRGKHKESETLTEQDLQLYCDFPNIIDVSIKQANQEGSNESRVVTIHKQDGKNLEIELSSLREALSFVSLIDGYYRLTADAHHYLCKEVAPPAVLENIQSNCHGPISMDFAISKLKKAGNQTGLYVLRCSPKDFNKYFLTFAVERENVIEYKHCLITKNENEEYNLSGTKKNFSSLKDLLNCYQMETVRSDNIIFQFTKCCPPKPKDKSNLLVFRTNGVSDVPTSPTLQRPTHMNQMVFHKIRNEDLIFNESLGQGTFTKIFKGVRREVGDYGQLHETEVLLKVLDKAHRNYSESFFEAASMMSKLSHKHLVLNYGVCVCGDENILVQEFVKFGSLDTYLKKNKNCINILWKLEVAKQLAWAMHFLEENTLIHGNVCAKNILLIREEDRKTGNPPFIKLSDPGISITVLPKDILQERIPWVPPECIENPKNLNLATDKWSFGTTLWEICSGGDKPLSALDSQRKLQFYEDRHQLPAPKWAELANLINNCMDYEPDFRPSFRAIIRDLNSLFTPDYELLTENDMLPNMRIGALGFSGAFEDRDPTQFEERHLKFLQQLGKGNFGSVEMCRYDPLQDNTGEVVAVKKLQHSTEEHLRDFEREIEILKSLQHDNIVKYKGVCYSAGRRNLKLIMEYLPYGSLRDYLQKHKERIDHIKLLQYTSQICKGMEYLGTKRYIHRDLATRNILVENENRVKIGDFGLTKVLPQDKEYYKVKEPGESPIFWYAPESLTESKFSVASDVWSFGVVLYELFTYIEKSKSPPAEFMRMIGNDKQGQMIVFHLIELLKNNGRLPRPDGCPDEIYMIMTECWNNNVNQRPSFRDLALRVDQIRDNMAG

Row | IC50 [1, 3] [µM] | IC50 [2, 4] [µM] | IC50 ([1]; JAK2 Kinase Inhibition) [µM] | IC50 ([2]; ALK Kinase Inhibition) [µM] | Molecule
1 | 0.1 to 1 | < 0.1 | – | – | COc1cc(CN2CCN(C[C@H](C)O)CC2)ccc1Nc1ncc2ccc(-c3ccccc3OC)n2n1 [Example 1226, (S)-1-(4-{3-Methoxy-4-[7-(2-methoxy-phenyl)-pyrrolo[2,1-f][1,2,4]triazin-2-ylamino]-benzyl}-piperazin-1-yl)-propan-2-ol]
2 | < 0.1 | 1 to 10 | – | – | CC(=O)Nc1cc(Nc2ncc3ccc(-c4cnn(C)c4)n3n2)ccc1Cl [Example 962, N-{2-Chloro-5-[7-(1-methyl-1H-pyrazol-4-yl)pyrrolo[2,1f][1,2,4]triazin-2-ylamino]-phenyl}-acetamide]
3 | > 10 | 0.1 to 1 | – | – | COc1cc(-c2cccnc2)ccc1Nc1ncc2ccc(-c3ccccc3N(C)S(C)(=O)=O)n2n1 [Example 808, N-{2-[2-(2-Methoxy-4-pyridin-3-yl-phenylamino)-pyrrolo[2,1-f][1,2,4]triazin-7-yl]-phenyl}-N-methyl-methanesulfonamide]
4 | – | – | 1 to 10 | > 10 | CN1CCN(c2ccc(Nc3ncc4c(-c5ccccc5Cl)ccn4n3)cc2)CC1 [Example 40, [5-(2-Chloro-phenyl)-pyrrolo[2,1-f][1,2,4]triazin-2-yl]-[4-(4-methyl-piperazin-1-yl)-phenyl]-amine]
5 | < 0.1 | 0.1 to 1 | – | – | COc1ccccc1-c1ccc2cnc(Nc3cccc(OCCN4CCOCC4)c3)nn12 [Example 1003, [7-(2-Methoxy-phenyl)-pyrrolo[2,1-f][1,2,4]triazin-2-yl]-[3-(2-morpholin-4-yl-ethoxy)-phenyl]-amine]
6 | – | – | < 0.1 | 1 to 10 | c1cncc(-c2ccc3cnc(Nc4cccc(N5CCOCC5)c4)nn23)c1 [Example 309, (3-Morpholin-4-yl-phenyl)-(7-pyridin-3-yl-pyrrolo[2,1-f][1,2,4]triazin-2-yl)-amine]
7 | < 0.1 | < 0.1 | – | – | CN1CCN(c2ccc(Nc3ncc4ccc(-c5cccc6c5OCCO6)n4n3)cc2)CC1 [Example 548, [7-(2,3-Dihydro-1,4-benzodioxin-5-yl)-pyrrolo[2,1-f][1,2,4]triazin-2-yl]-[4-(4-methyl-piperazin-1-yl)-phenyl]-amine]
8 | – | – | < 0.1 | < 0.1 | COc1ccc(Nc2ncc3ccc(-c4ccccc4N(C)S(C)(=O)=O)n3n2)cc1N1CCOCC1 [Example 393, N-{2-[2-(4-Methoxy-3-morpholin-4-yl-phenylamino)-pyrrolo[2,1-f][1,2,4]triazin-7-yl]-phenyl}-N-methyl-methanesulfonamide]
9 | – | – | < 0.1 | 1 to 10 | CC(C)(C)NS(=O)(=O)c1cccc(-c2ccc3cnc(Nc4ccc(C(N)=O)cc4)nn23)c1 [Example 1399, 4-[7-(3-tert-Butylsulfamoyl-phenyl)-pyrrolo[2,1-f][1,2,4]triazin-2-ylamino]-benzamide]
10 | < 0.1 | < 0.1 | – | – | COc1cc(N2CCC(N(C)C)CC2)ccc1Nc1ncc2ccc(-c3ccccc3OC)n2n1 [Example 476, [4-(4-Dimethylamino-piperidin-1-yl)-2-methoxy-phenyl]-[7-(2-methoxy-phenyl)-pyrrolo[2,1-f][1,2,4]triazin-2-yl]-amine]
11 | – | – | < 0.1 | 0.1 to 1 | C[C@@H](O)CN1CCN(c2ccc(Nc3ncc4ccc(-c5cccc(Cl)c5)n4n3)cc2)CC1 [Example 208, (R)-1-(4-{4-[7-(3-Chloro-phenyl)-pyrrolo[2,1-f][1,2,4]triazin-2-ylamino]-phenyl}-piperazin-1-yl)-propan-2-ol]
12 | < 0.1 | < 0.1 | – | – | COc1cccc(F)c1-c1ccc2cnc(Nc3ccc(C4CCN(CC(N)=O)CC4)cc3)nn12 [Example 1353, 2-(4-{4-[7-(2-Fluoro-6-methoxy-phenyl)-pyrrolo[2,1-f][1,2,4]triazin-2-ylamino]-phenyl}-piperidin-1-yl)-acetamide]
13 | < 0.1 | 0.1 to 1 | – | – | NC(=O)CN1CCC(c2ccc(Nc3ncc4ccc(-c5cccc(S(=O)(=O)N6CCCC6)c5)n4n3)cc2)CC1 [Example 928, 2-[4-(4-{7-[3-(Pyrrolidine-1-sulfonyl)-phenyl]-pyrrolo[2,1-f][1,2,4]triazin-2-ylamino}-phenyl)-piperidin-1-yl]-acetamide]
14 | – | – | < 0.1 | 0.1 to 1 | COc1ccccc1-c1ccc2cnc(Nc3ccc(N4CCOCC4)nc3)nn12 [Example 47, [7-(2-Methoxy-phenyl)-pyrrolo[2,1-f][1,2,4]triazin-2-yl]-(6-morpholin-4-yl-pyridin-3-yl)-amine]
15 | < 0.1 | 1 to 10 | – | – | COc1ccc(-c2ccc3cnc(Nc4ccc5[nH]c(=O)[nH]c5c4)nn23)cn1 [Example 1309, 5-[7-(6-Methoxy-pyridin-3-yl)-pyrrolo[2,1-f][1,2,4]triazin-2-ylamino]-1,3-dihydro-benzimidazol-2-one]
16 | < 0.1 | 1 to 10 | – | – | CC(C)(C)NS(=O)(=O)c1cccc(-c2ccc3cnc(Nc4cccc(C(=O)N5CCOCC5)c4)nn23)c1 [Example 892, N-tert-Butyl-3-{2-[3-(morpholine-4-carbonyl)-phenylamino]-pyrrolo[2,1-f][1,2,4]triazin-7-yl}-benzenesulfonamide]
17 | – | – | < 0.1 | < 0.1 | COc1cc(N2CCN(C)CC2)ccc1Nc1ncc2ccc(-c3cccnc3OC)n2n1 [Example 34, [2-Methoxy-4-(4-methyl-piperazin-1-yl)-phenyl]-[7-(2-methoxy-pyridin-3-yl)-pyrrolo[2,1-f][1,2,4]triazin-2-yl]-amine]
18 | – | – | < 0.1 | < 0.1 | CC(C)(O)CN1CCN(c2ccc(Nc3ncc4ccc(-c5cccc(Cl)c5)n4n3)cc2)CC1 [Example 223, 1-(4-{4-[7-(3-Chloro-phenyl)-pyrrolo[2,1-f][1,2,4]triazin-2-ylamino]-phenyl}-piperazin-1-yl)-2-methyl-propan-2-ol]
19 | < 0.1 | < 0.1 | – | – | N#Cc1ccccc1-c1ccc2cnc(Nc3ccc(C4CCN(CC(N)=O)CC4)cc3)nn12 [Example 513, 2-(4-{4-[7-(2-Cyano-phenyl)-pyrrolo[2,1-f][1,2,4]triazin-2-ylamino]-phenyl}-piperidin-1-yl)-acetamide]
20 | – | – | 0.1 to 1 | < 0.1 | COc1ccccc1-c1ccc2cnc(Nc3ccc4c(c3OC)CCC(N3CCOCC3)CC4)nn12 (stereo not drawn) [Example 1452, (1-Methoxy-7-morpholin-4-yl-6,7,8,9-tetrahydro-5H-benzo cyclohepten-2-yl)-[7-(2-methoxy-phenyl)-pyrrolo[2,1-f][1,2,4]triazin-2-yl]-amine]
21 | – | – | < 0.1 | 1 to 10 | CNC(=O)c1cccc(Nc2ncc3ccc(-c4cccc(S(=O)(=O)NC(C)(C)C)c4)n3n2)c1 [Example 1384, 3-[7-(3-tert-Butylsulfamoyl-phenyl)-pyrrolo[2,1-f][1,2,4]triazin-2-ylamino]-N-methyl-benzamide]
22 | – | – | 1 to 10 | > 10 | CN(C)c1cccc(Nc2ncc3ccc(-c4cccc(Cl)c4)n3n2)c1 [Example 159, N-[7-(3-Chloro-phenyl)-pyrrolo[2,1-f][1,2,4]triazin-2-yl]-N′,N′-dimethyl-benzene-1,3-diamine]
23 | < 0.1 | 1 to 10 | – | – | Cn1ncc2cc(Nc3ncc4ccc(-c5cccc(S(=O)(=O)CC6CC6)c5)n4n3)ccc21 [Example 1322, [7-(3-Cyclopropylmethanesulfonyl-phenyl)-pyrrolo[2,1-f][1,2,4]triazin-2-yl]-(1-methyl-1H-indazol-5-yl)-amine]
24 | – | – | < 0.1 | > 10 | CC(C)(C)OC(=O)c1ccc(-c2ccc3cnc(Nc4ccc(N5CCOCC5)cc4)nn23)cc1 [Example 44, 4-[2-(4-Morpholin-4-yl-phenylamino)-pyrrolo[2,1-f][1,2,4]triazin-7-yl]-benzoic acid tert-butyl ester]
25 | < 0.1 | 0.1 to 1 | – | – | CCOC(=O)c1ccccc1-c1ccc2cnc(Nc3ccc(N4CCN(C)CC4)cc3)nn12 [Example 1146, 2-{2-[4-(4-Methyl-piperazin-1-yl)-phenylamino]-pyrrolo[2,1-f][1,2,4]triazin-7-yl}-benzoic acid ethyl ester]
26 | < 0.1 | 1 to 10 | – | – | CC(C)(C)NS(=O)(=O)c1cccc(-c2ccc3cnc(Nc4cccc(C(=O)O)c4)nn23)c1 [Example 895, 3-[7-(3-tert-Butylsulfamoyl-phenyl)-pyrrolo[2,1-f][1,2,4]triazin-2-ylamino]-benzoic acid]
27 | – | – | < 0.1 | 1 to 10 | CS(=O)(=O)Nc1ccccc1-c1ccc2cnc(Nc3cccc(N4CCOCC4)c3)nn12 [Example 431, N-{2-[2-(3-Morpholin-4-yl-phenylamino)-pyrrolo[2,1-f][1,2,4]triazin-7-yl]-phenyl}-methanesulfonamide]
28 | < 0.1 | < 0.1 | – | – | COc1ccccc1-c1ccc2cnc(Nc3ccc(N4CCN(C)CC4)cc3Cl)nn12 [Example 508, [2-Chloro-4-(4-methyl-piperazin-1-yl)-phenyl]-[7-(2-methoxy-phenyl)-pyrrolo[2,1-f][1,2,4]triazin-2-yl]-amine]
29 | < 0.1 | 0.1 to 1 | – | – | CC(C)(C)NS(=O)(=O)c1cccc(-c2ccc3cnc(Nc4ccc(C5CCC(N6CCCC6)CC5)cc4)nn23)c1 (stereo not drawn) [Example 566, N-tert-Butyl-3-{2-[4-(4-pyrrolidin-1-yl-cyclohexyl)-phenylamino]-pyrrolo[2,1-f][1,2,4]triazin-7-yl}-benzenesulfonamide]

Row | Molecule | IC50 [1, 3] [µM] | IC50 [2, 4] [µM] | IC50 ([1]; JAK2 Kinase Inhibition) [µM] | IC50 ([2]; ALK Kinase Inhibition) [µM]
30 | (±)-1-Fluoro-3-(4-{3-methoxy-4-[7-(2-methoxy-phenyl)-pyrrolo[2,1-f][1,2,4]triazin-2-ylamino]-phenyl}-piperidin-1-yl)-propan-2-ol [Example 825] | 0.1 to 1 | < 0.1 | – | –
